Laboratory results from paper PMC9027599, “Secondary Metabolites in Basil, Bio-Insecticide, Inhibition Effect, and In Silico Molecular Docking against Proteolytic Enzymes of the Red Palm Weevil (Rhynchophorus ferrugineus)” (Plants, 2022).

Columns and labels:
[1] = system: proteases from the fourth larval instars of R. ferrugineus's midgut; experiment: Specific protease inhibitors on midgut proteases (in vitro, Figure S2); assay type: biochemical, Rhynchophorus ferrugineus; settings: purified proteases of fourth larval instar midgut
Method: The activity of cysteine proteinase was determined in the fourth midgut instar larval homogenate of R. ferrugineus using the substrate Z-Phe-Arg-MNA [1]. Ten larvae were carefully removed, dissected, and rinsed repeatedly with NaCl solution (0.9% (w/v). The midgut instar was homogenized in protease assay buffer (500 µL) [5 mM DTT, 50 mM HEPS (N-2-Hydroxyethyl piperazin-N’-2-ethanesulfonic acid), pH 8.0, and 0.1 percent Triton X-100]. The reaction mixture was centrifuged for 30 min at 5000 rpm (Sigma 3k30 cooling centrifuge). The supernatant was utilized to determine the overall activity of proteolytic enzymes and the protein content. The supernatant (10 µL) was incubated for 30 min at 37 °C, and the volume was adjusted to 60 µL using assay buffer (pH 8) before adding 100 µL of substrate (0.5 mM). Prior to adding the substrate, 10 µL enzyme samples were pre-incubated with iodoacetic acid for 10 min. After 60 min at 37 °C of mixture incubation, the reaction was halted with the addition of 1.5 mL mersalyl (5 mM), 0.02 mg/mL fast garnet reactive solution, and 2% Tween 20. The reaction was centrifuged (at 5000 rpm, 6 min), then the absorbance was determined (at 520 nm). The activity of cysteine proteinase was measured using an ELISA quick plate reader at the OD520/60 min/mg of midgut protein. As a blank, a test mixture devoid of enzyme was used. […] The fourth homogenates of midgut larval were produced as reported before in the experiment for determining enzyme activity. […]
To learn more about the proteases found in homogenate preparations of R. ferrugineus fourth midgut larval instars, inhibitors from many different types of mechanisms were used. […] The absorbance of the enzymes was determined using an ELISA plate quick reader at various wavelengths. The percentage activity of the control enzyme for each inhibitor was evaluated for each enzyme. Protease activity was assayed in vivo in the R. ferrugineus fourth midgut larval instars, which were treated with 1, 10, 50, 100, 500, 1000, and 5000 mg/L of extracts or compounds, measured as described above. […]

[2] = system: cysteine protease; experiment: Cysteine protease activity of midgut from larvae treated 24 h (in vivo); parameters: species or system Rhynchophorus ferrugineus; settings: midgut of fourth instar larvae treated for 24 h
Method: The activity of cysteine proteinase was determined in the fourth midgut instar larval homogenate of R. ferrugineus using the substrate Z-Phe-Arg-MNA [1]. […] The reaction was centrifuged (at 5000 rpm, 6 min), then the absorbance was determined (at 520 nm). The activity of cysteine proteinase was measured using an ELISA quick plate reader at the OD520/60 min/mg of midgut protein. […]
As a control, an assay combination devoid of inhibitors was utilized. The absorbance of the enzymes was determined using an ELISA plate quick reader at various wavelengths. The percentage activity of the control enzyme for each inhibitor was evaluated for each enzyme. Protease activity was assayed in vivo in the R. ferrugineus fourth midgut larval instars, which were treated with 1, 10, 50, 100, 500, 1000, and 5000 mg/L of extracts or compounds, measured as described above. […]

[3] = molecular target: cysteine protease; experiment: Cysteine proteinase activity, Z-Phe-Arg-MNA (in vitro); assay type: biochemical, Rhynchophorus ferrugineus; settings: fourth instar larvae midgut homogenate
Method: The activity of cysteine proteinase was determined in the fourth midgut instar larval homogenate of R. ferrugineus using the substrate Z-Phe-Arg-MNA [1]. Ten larvae were carefully removed, dissected, and rinsed repeatedly with NaCl solution (0.9% (w/v). The midgut instar was homogenized in protease assay buffer (500 µL) [5 mM DTT, 50 mM HEPS (N-2-Hydroxyethyl piperazin-N’-2-ethanesulfonic acid), pH 8.0, and 0.1 percent Triton X-100]. The reaction mixture was centrifuged for 30 min at 5000 rpm (Sigma 3k30 cooling centrifuge). The supernatant was utilized to determine the overall activity of proteolytic enzymes and the protein content. The supernatant (10 µL) was incubated for 30 min at 37 °C, and the volume was adjusted to 60 µL using assay buffer (pH 8) before adding 100 µL of substrate (0.5 mM). Prior to adding the substrate, 10 µL enzyme samples were pre-incubated with iodoacetic acid for 10 min. After 60 min at 37 °C of mixture incubation, the reaction was halted with the addition of 1.5 mL mersalyl (5 mM), 0.02 mg/mL fast garnet reactive solution, and 2% Tween 20. The reaction was centrifuged (at 5000 rpm, 6 min), then the absorbance was determined (at 520 nm). The activity of cysteine proteinase was measured using an ELISA quick plate reader at the OD520/60 min/mg of midgut protein. As a blank, a test mixture devoid of enzyme was used. […] The fourth homogenates of midgut larval were produced as reported before in the experiment for determining enzyme activity. As previously disclosed, the inhibitory experiment was performed using a microplate assay. A series of inhibitor concentrations was created to determine the inhibitor’s maximal inhibitory effect. Leupeptin concentrations of 0.01, 0.05, 0.1, and 1.0 mM, PMSF concentrations of 0.1, 1.0, 10, and 50 mM, TLCK and TPCK concentrations of 0.01, 0.05, 0.1, 1, 50, and 100 mM, EDTA concentrations of 0.1, 1, 10, 50, and 100 mM, and iodoacetic acid concentrations of 0.01, 0.05, 0.1, and 1 mM.
As a control, an assay combination devoid of inhibitors was utilized. The absorbance of the enzymes was determined using an ELISA plate quick reader at various wavelengths. The percentage activity of the control enzyme for each inhibitor was evaluated for each enzyme. Protease activity was assayed in vivo in the R. ferrugineus fourth midgut larval instars, which were treated with 1, 10, 50, 100, 500, 1000, and 5000 mg/L of extracts or compounds, measured as described above. Larvae were exposed for 24 h to leaf discs treated with extract and compounds.

[4] = system: total proteases; experiment: Total protease activity of midgut from larvae treated 24 h (in vivo); parameters: species or system Rhynchophorus ferrugineus; settings: midgut of fourth instar larvae treated for 24 h
Method: (§1) The Lowry technique was used to determine the protein concentrations. Total proteolytic activity was determined in the fourth midgut instar larval (lab strain) homogenate of R. ferrugineus with azocasein in accordance with […] et al. […] [70]. […] Using a Sigma 3k30 cooling centrifuge, reserve homogenates prepared in a previous stage were spun at 5000 rpm for 30 min. Estimates of protein content and total proteolytic enzyme activity were made using the supernatants. The supernatant (10 μL) was incubated at 37 °C for 20 min, and the volume was adjusted to 60 μL using an assay buffer (pH 8), before adding azocasien (200 μL, 2% (w/v)). […] Following that, to activate the reaction, the substrate was introduced 20 min for Leupeptin, so the reaction was halted after 180 min at 37 °C with 300 μL of cool tri-chloroacetic acid (TCA) (10% (v/v). The mixture was centrifuged for 20 min at 5000 rpm (Sigma 3k30 cooling centrifuge). […] To learn more about the proteases found in homogenate preparations of R. ferrugineus fourth midgut larval instars, inhibitors from many different types of mechanisms were used. […] As a control, an assay combination devoid of inhibitors was utilized. The absorbance of the enzymes was determined using an ELISA plate quick reader at various wavelengths. The percentage activity of the control enzyme for each inhibitor was evaluated for each enzyme. […] Larvae were exposed for 24 h to leaf discs treated with extract and compounds.

[5] = system: metalloprotease; experiment: Metalloprotease activity of midgut from larvae treated 24 h (in vivo); parameters: species or system Rhynchophorus ferrugineus; settings: midgut of fourth instar larvae treated for 24 h
Method: (§2) A substrate azocasein assessed the metalloproteinases activity in the fourth midgut instar larval homogenate. Ten larvae were carefully removed, dissected, and rinsed repeatedly with NaCl solution (0.9% (w/v). […] After homogenization, the homogenates were centrifuged at 5000 rpm (for 30 min) using a Sigma centrifuge 3k30, and the supernatant was utilized to determine enzyme activity and protein content. The supernatant per experiment (10 µL) was incubated for 20 min at 37 °C, and the volume was adjusted to 60 µL using assay buffer pH 8 before adding azocasein (200 µL, 2% (w/v)). In all instances, 10 µL enzyme samples were incubated for 10 min (except EDTA with 20 min), and EDTA was used as a blocker of metalloproteinase activity before being added to the specific substrate. The reaction was interrupted with 300 µL of trichloroacetic acid (TCA cold, 10% (v/v) and continued at 37 °C for 180 min. The reaction mixture was then centrifuged at 5000 rpm for 20 min (Sigma centrifuge 3k30), sodium hydroxide (10 µL of 10 N) was incorporated into the supernatant, then absorbance was determined using an ELISA plate reader at 450 nm. As a blank, an assay mixture devoid of the enzyme was devoted, the specific activity was determined using the OD450 mg^−1 protein min^−1 value, and a blank solution sample devoid of enzyme solution was determined. To learn more about the proteases found in homogenate preparations of R. ferrugineus fourth midgut larval instars, inhibitors from many different types of mechanisms were used. […] As a control, an assay combination devoid of inhibitors was utilized. The absorbance of the enzymes was determined using an ELISA plate quick reader at various wavelengths. The percentage activity of the control enzyme for each inhibitor was evaluated for each enzyme. […] Larvae were exposed for 24 h to leaf discs treated with extract and compounds.

[6] = molecular target: metalloprotease; experiment: Metalloproteinase activity, azocasein (in vitro); assay type: biochemical, Rhynchophorus ferrugineus; settings: fourth instar larvae midgut homogenate
Method: as §2

[7] = molecular target: trypsin-like serine proteinase; experiment: Serine proteinase microplate assay, BApNA (in vitro); assay type: biochemical, Rhynchophorus ferrugineus; settings: fourth instar larvae midgut homogenate
Method: The specific activities of serine proteinase were determined using a rapid quick microplate assay with substrates in reaction mixtures (150 μL) including a serine protease assay buffer, according to […] et al. and Olga et al. with modifications. The midguts were homogenized in the assay buffer (100 mM Tris-HCl, pH 8.1) and centrifuged for 30 min at 8000 rpm (Sigma 3K 30, rotors No. 12158). […] […] (100 mg/mL in DMF), BAρNA (100 mg/mL in DMSO), and […] (100 mg/mL in DMF) stock substrates were diluted in the assay buffer to 1 mg/mL, and substrate volume was 50 μL. […] The activity was quantified using an ELISA plate reader at a wavelength of 405 nm. As an empty well, an assay combination containing a denaturation enzyme was utilized instead of an active enzyme. […] To learn more about the proteases found in homogenate preparations of R. ferrugineus fourth midgut larval instars, inhibitors from many different types of mechanisms were used. […] As a control, an assay combination devoid of inhibitors was utilized. The absorbance of the enzymes was determined using an ELISA plate quick reader at various wavelengths. The percentage activity of the control enzyme for each inhibitor was evaluated for each enzyme. […] Larvae were exposed for 24 h to leaf discs treated with extract and compounds.

[8] = system: total proteases; experiment: Total proteolytic activity of fourth instar midgut homogenate, azocasein (in vitro); assay type: biochemical, Rhynchophorus ferrugineus; settings: fourth instar larvae midgut homogenate
Method: as §1

[9] = system: trypsin-like serine proteinase; experiment: Trypsin-like activity of midgut from larvae treated 24 h (in vivo); parameters: species or system Rhynchophorus ferrugineus; settings: midgut of fourth instar larvae treated for 24 h
Method: The midguts were homogenized in the assay buffer (100 mM Tris-HCl, pH 8.1) and centrifuged for 30 min at 8000 rpm (Sigma 3K 30, rotors No. 12158). […] […] (100 mg/mL in DMF), BAρNA (100 mg/mL in DMSO), and […] (100 mg/mL in DMF) stock substrates were diluted in the assay buffer to 1 mg/mL, and substrate volume was 50 μL. […] The activity was quantified using an ELISA plate reader at a wavelength of 405 nm. As an empty well, an assay combination containing a denaturation enzyme was utilized instead of an active enzyme. […] To learn more about the proteases found in homogenate preparations of R. ferrugineus fourth midgut larval instars, inhibitors from many different types of mechanisms were used. […] As a control, an assay combination devoid of inhibitors was utilized. The absorbance of the enzymes was determined using an ELISA plate quick reader at various wavelengths. The percentage activity of the control enzyme for each inhibitor was evaluated for each enzyme. […] Larvae were exposed for 24 h to leaf discs treated with extract and compounds.

Cc1ccc(S(=O)(=O)N[C@@H](CCCCN)C(=O)CCl)cc1 [TLCK]
effect of specific inhibitor on midgut proteases [1]: dramatically suppressed

Cc1ccc(S(=O)(=O)N[C@@H](Cc2ccccc2)C(=O)CCl)cc1 [TPCK]
effect of specific inhibitor on midgut proteases [1]: dramatically suppressed

C[C@H]1[C@H](C)CC[C@]2(C(=O)O)CC[C@]3(C)C(=CC[C@@H]4[C@@]5(C)CC[C@H](O)C(C)(C)[C@@H]5CC[C@]43C)[C@H]12 [Ursolic acid]
IC50 against cysteine protease (in vivo) [2]: 685.2 µg/mL
IC50 against cysteine protease (in vitro) [3]: 58.2 µg/mL
IC50 against total proteases (in vivo) [4]: 279.5 µg/mL
IC50 against metalloprotease (in vivo) [5]: 548.3 µg/mL
IC50 against metalloprotease (in vitro) [6]: 119.4 µg/mL
IC50 against trypsin-like serine proteinase (in vitro) [7]: 57.4 µg/mL
IC50 against total proteases (in vitro) [8]: 67.2 µg/mL
IC50 against trypsin-like serine proteinase (in vivo) [9]: 235.1 µg/mL

O=C(O)CI [iodoacetic acid]
effect of specific inhibitor on midgut proteases [1]: dramatically suppressed
